# Measured values taken from PubChem BioAssay (NCI).
#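 How tested: cells in 96-well plates exposed to compound for 48 hours at five concentrations. At the TGI there is no net growth.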
# How the values were obtained:
# Test in all cases: NCI anticancer screen, dose series, 48 h
# RPMI-8226 leukemia = system: RPMI-8226 leukemia
# HOP-18 NSCLC = system: HOP-18 NSCLC
# K-562 leukemia = system: K-562 leukemia
# 786-0 renal = system: 786-0 renal
# COLO 205 colon = system: COLO 205 colon
# UACC-62 melanoma = system: UACC-62 melanoma
# SNB-75 CNS = system: SNB-75 CNS
# SK-MEL-2 melanoma = system: SK-MEL-2 melanoma
# NCI-H23 lung = system: NCI-H23 lung
# OVCAR-8 ovarian = system: OVCAR-8 ovarian
# DLD-1 colon = system: DLD-1 colon
# KM20L2 colon = system: KM20L2 colon
# KM12 colon = system: KM12 colon
# SK-MEL-5 melanoma = system: SK-MEL-5 melanoma
# HCC-2998 colon = system: HCC-2998 colon
# NCI-H226 lung = system: NCI-H226 lung
# A549 NSCLC = system: A549 NSCLC
# NCI-H522 lung = system: NCI-H522 lung
# SK-OV-3 ovarian = system: SK-OV-3 ovarian
# TK-10 renal = system: TK-10 renal
# LOX IMVI melanoma = system: LOX IMVI melanoma
# HT29 colon = system: HT29 colon
# IGROV1 ovarian = system: IGROV1 ovarian
# SW-620 colon = system: SW-620 colon
# SNB-78 CNS = system: SNB-78 CNS
# M19-MEL melanoma = system: M19-MEL melanoma
# HOP-62 NSCLC = system: HOP-62 NSCLC
# SK-MEL-28 melanoma = system: SK-MEL-28 melanoma
# OVCAR-4 ovarian = system: OVCAR-4 ovarian
# NCI-H460 lung = system: NCI-H460 lung
# CCRF-CEM leukemia = system: CCRF-CEM leukemia
# SR leukemia = system: SR leukemia
# SF-268 CNS = system: SF-268 CNS
# MALME-3M melanoma = system: MALME-3M melanoma
# SN12C renal = system: SN12C renal
# HL-60(TB) leukemia = system: HL-60(TB) leukemia
# SNB-19 CNS = system: SNB-19 CNS
# CAKI-1 renal = system: CAKI-1 renal
# MOLT-4 leukemia = system: MOLT-4 leukemia
# UO-31 renal = system: UO-31 renal
# OVCAR-3 ovarian = system: OVCAR-3 ovarian
# DMS 114 small cell lung = system: DMS 114 small cell lung
# XF 498 CNS = system: XF 498 CNS
# OVCAR-5 ovarian = system: OVCAR-5 ovarian
# EKVX NSCLC = system: EKVX NSCLC
# LXFL 529 NSCLC = system: LXFL 529 NSCLC
# HCT-116 colon = system: HCT-116 colon
# M14 melanoma = system: M14 melanoma
# UACC-257 melanoma = system: UACC-257 melanoma
# DMS 273 small cell lung = system: DMS 273 small cell lung
# RXF 393 renal = system: RXF 393 renal
# U251 CNS = system: U251 CNS
# HCT-15 colon = system: HCT-15 colon
# SF-295 CNS = system: SF-295 CNS
# ACHN renal = system: ACHN renal
# SF-539 CNS = system: SF-539 CNS
# HOP-92 NSCLC = system: HOP-92 NSCLC
# A498 renal = system: A498 renal
smiles,measurement,setting,value
O=C(Cc1ccccc1)NN1C(=O)C(Cl)C1c1cc(Br)cc(Br)c1O (configuration not stated),TGI,RPMI-8226 leukemia,29.1 µM
same,TGI,HOP-18 NSCLC,31.4 µM
same,TGI,K-562 leukemia,34.1 µM
same,TGI,786-0 renal,36.7 µM
same,TGI,COLO 205 colon,44.8 µM
same,TGI,UACC-62 melanoma,61.6 µM
same,TGI,SNB-75 CNS,56.1 µM
same,TGI,SK-MEL-2 melanoma,36.6 µM
same,TGI,NCI-H23 lung,33.2 µM
same,TGI,OVCAR-8 ovarian,> 100 µM
same,TGI,DLD-1 colon,> 100 µM
same,TGI,KM20L2 colon,> 100 µM
same,TGI,KM12 colon,> 100 µM
same,TGI,SK-MEL-5 melanoma,29.6 µM
same,TGI,HCC-2998 colon,31.1 µM
same,TGI,NCI-H226 lung,36.9 µM
same,TGI,A549 NSCLC,76.1 µM
same,TGI,NCI-H522 lung,16.9 µM
same,TGI,SK-OV-3 ovarian,62.6 µM
same,TGI,TK-10 renal,> 100 µM
same,TGI,LOX IMVI melanoma,40 µM
same,TGI,HT29 colon,63.4 µM
same,TGI,IGROV1 ovarian,58.9 µM
same,TGI,SW-620 colon,30.5 µM
same,TGI,SNB-78 CNS,83 µM
same,TGI,M19-MEL melanoma,63.2 µM
same,TGI,HOP-62 NSCLC,54 µM
same,TGI,SK-MEL-28 melanoma,35.3 µM
same,TGI,OVCAR-4 ovarian,80.4 µM
same,TGI,NCI-H460 lung,22.4 µM
same,TGI,CCRF-CEM leukemia,24.1 µM
same,TGI,SR leukemia,13.1 µM
same,TGI,SF-268 CNS,43.3 µM
same,TGI,MALME-3M melanoma,51.9 µM
same,TGI,SN12C renal,> 100 µM
same,TGI,HL-60(TB) leukemia,10.1 µM
same,TGI,SNB-19 CNS,38.9 µM
same,TGI,CAKI-1 renal,78.5 µM
same,TGI,MOLT-4 leukemia,13.2 µM
same,TGI,UO-31 renal,20.6 µM
same,TGI,OVCAR-3 ovarian,10.7 µM
same,TGI,DMS 114 small cell lung,17.8 µM
same,TGI,XF 498 CNS,79.3 µM
same,TGI,OVCAR-5 ovarian,38.5 µM
same,TGI,EKVX NSCLC,68.1 µM
same,TGI,LXFL 529 NSCLC,50 µM
same,TGI,HCT-116 colon,16 µM
same,TGI,M14 melanoma,45.6 µM
same,TGI,UACC-257 melanoma,39.4 µM
same,TGI,DMS 273 small cell lung,65.2 µM
same,TGI,RXF 393 renal,40.4 µM
same,TGI,U251 CNS,31.4 µM
same,TGI,HCT-15 colon,> 100 µM
same,TGI,SF-295 CNS,98.7 µM
same,TGI,ACHN renal,> 100 µM
O=C(O)c1cc2c3c(c1)[C@H]1C=CC[C@H]1CN3CC1CC=CC21 (some centres not stated),TGI,RPMI-8226 leukemia,> 100 µM
same,TGI,HOP-18 NSCLC,> 100 µM
same,TGI,K-562 leukemia,> 100 µM
same,TGI,786-0 renal,> 100 µM
same,TGI,COLO 205 colon,> 100 µM
same,TGI,UACC-62 melanoma,> 100 µM
same,TGI,SNB-75 CNS,> 100 µM
same,TGI,SF-539 CNS,> 100 µM
same,TGI,SK-MEL-2 melanoma,> 100 µM
same,TGI,NCI-H23 lung,> 100 µM
same,TGI,OVCAR-8 ovarian,> 100 µM
same,TGI,DLD-1 colon,> 100 µM
same,TGI,KM20L2 colon,> 100 µM
same,TGI,KM12 colon,> 100 µM
same,TGI,SK-MEL-5 melanoma,> 100 µM
same,TGI,HCC-2998 colon,> 100 µM
same,TGI,NCI-H226 lung,> 100 µM
same,TGI,A549 NSCLC,> 100 µM
same,TGI,NCI-H522 lung,> 100 µM
same,TGI,SK-OV-3 ovarian,> 100 µM
same,TGI,TK-10 renal,> 100 µM
same,TGI,LOX IMVI melanoma,> 100 µM
same,TGI,HT29 colon,> 100 µM
same,TGI,IGROV1 ovarian,> 100 µM
same,TGI,SW-620 colon,> 100 µM
same,TGI,SNB-78 CNS,> 100 µM
same,TGI,M19-MEL melanoma,> 100 µM
same,TGI,HOP-62 NSCLC,> 100 µM
same,TGI,HOP-92 NSCLC,> 100 µM
same,TGI,OVCAR-4 ovarian,> 100 µM
same,TGI,NCI-H460 lung,> 100 µM
same,TGI,CCRF-CEM leukemia,> 100 µM
same,TGI,SR leukemia,> 100 µM
same,TGI,SF-268 CNS,> 100 µM
same,TGI,MALME-3M melanoma,> 100 µM
same,TGI,SN12C renal,> 100 µM
same,TGI,HL-60(TB) leukemia,> 100 µM
same,TGI,SNB-19 CNS,> 100 µM
same,TGI,CAKI-1 renal,> 100 µM
same,TGI,MOLT-4 leukemia,> 100 µM
same,TGI,UO-31 renal,> 100 µM
same,TGI,OVCAR-3 ovarian,> 100 µM
same,TGI,A498 renal,> 100 µM
same,TGI,DMS 114 small cell lung,> 100 µM
same,TGI,XF 498 CNS,> 100 µM
same,TGI,OVCAR-5 ovarian,> 100 µM
same,TGI,EKVX NSCLC,> 100 µM
same,TGI,LXFL 529 NSCLC,> 100 µM
same,TGI,HCT-116 colon,> 100 µM
same,TGI,M14 melanoma,> 100 µM
same,TGI,UACC-257 melanoma,> 100 µM
same,TGI,DMS 273 small cell lung,> 100 µM
same,TGI,RXF 393 renal,> 100 µM
same,TGI,U251 CNS,> 100 µM
same,TGI,HCT-15 colon,> 100 µM
same,TGI,SF-295 CNS,> 100 µM
same,TGI,ACHN renal,> 100 µM
